Test results reported in patent EP4755890A1, “OXO-TRICYCLIC DERIVATIVE AND PHARMACEUTICAL USE THEREOF” (Haisco Pharmaceutical Group Co., Ltd., priority 2023, dated 2025).

Key:
[1] = biological target: T1, WRN protein (AA N517-P1238, ICE) (Homo sapiens, UniProt Q14191); assay: Assay for ATPase activity of WRN helicase (ADP-Glo); type: biochemical; conditions: inhibition of ATPase activity of WRN helicase; 0.3 nM WRN, 0.2 nM DNA substrate, 10 µM ATP
T1 construct: WRN protein (AA N517-P1238, ICE); purchased ICE
T1 sequence (Q14191 517-1238): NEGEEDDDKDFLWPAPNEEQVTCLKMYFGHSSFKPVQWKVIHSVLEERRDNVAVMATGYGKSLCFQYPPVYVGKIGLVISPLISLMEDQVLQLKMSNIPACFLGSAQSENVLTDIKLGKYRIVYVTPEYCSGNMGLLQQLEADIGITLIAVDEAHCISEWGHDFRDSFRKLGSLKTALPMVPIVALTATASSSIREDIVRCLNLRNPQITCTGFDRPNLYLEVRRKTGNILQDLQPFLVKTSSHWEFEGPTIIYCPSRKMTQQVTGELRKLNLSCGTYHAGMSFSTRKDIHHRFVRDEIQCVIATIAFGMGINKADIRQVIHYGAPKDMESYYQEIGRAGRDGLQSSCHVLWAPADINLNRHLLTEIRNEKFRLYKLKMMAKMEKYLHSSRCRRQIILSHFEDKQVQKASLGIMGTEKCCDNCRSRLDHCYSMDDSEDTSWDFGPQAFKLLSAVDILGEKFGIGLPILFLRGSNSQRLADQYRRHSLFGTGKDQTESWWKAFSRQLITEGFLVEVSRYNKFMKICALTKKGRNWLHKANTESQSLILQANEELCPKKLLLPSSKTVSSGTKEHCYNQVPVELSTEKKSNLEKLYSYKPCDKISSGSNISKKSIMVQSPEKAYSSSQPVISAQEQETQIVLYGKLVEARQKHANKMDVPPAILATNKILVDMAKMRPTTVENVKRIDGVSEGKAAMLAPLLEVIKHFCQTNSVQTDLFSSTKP
Method: The assay buffer working solution was as follows: 30 mM Tris pH 7.5 + 0.02% BSA + 2 mM MgCl2 + 50 mM NaCl + 0.1% Pluronic® F127 + 1 mM DTT. WRN protein (AA N517-P1238, ICE) was obtained through protein expression and purification in vitro. A single-stranded DNA substrate ([…]) was synthesized in vitro. 1 µL each of compounds at different concentrations, the WRN protein, and the DNA substrate, together with 2 µL of ATP, were added to a 384-well white plate. The working concentrations of the WRN protein, the DNA substrate, and the ATP were 0.3 nM, 0.2 nM, and 10 µM, respectively. The plate was incubated at room temperature for 20 minutes. After the incubation was completed, the detection was performed in accordance with the instructions of the ADP-Glo Assay Kit (Promega), and the chemiluminescence value was read.
The inhibition rate was calculated according to Formula 1, where RLUsample is the readout of the compound well, RLUmax is the readout of the DMSO control well, and RLUmin is the readout of the control well without the WRN protein. Curve fitting was performed via a four-parameter logistic model (log(inhibitor) vs. response -- Variable slope) using GraphPad Prism software, and the IC50 value was calculated. Inhibition% = (1−(RLUsample−RLUmin)/(RLUmax−RLUmin)) × 100% [formula] Table 1. Results of inhibitory activity of test compounds against ATPase activity of WRN helicase

HCT-116 cells = assay: HCT-116 cell proliferation inhibition assay (CellTiter-Glo); type: cell-based; conditions: Homo sapiens, 96 h, 4 days, read-out: Inhibitory activity against HCT-116 cell proliferation IC50
Method: The culture conditions for HCT-116 cells were as follows: RPMI-1640 + 10% FBS + 1% penicillin-streptomycin, and the cells were cultured in an incubator with 5% CO2 at 37°C. On the first day, the HCT-116 cells in the exponential growth phase were collected and plated in 96-well cell culture plates at a density of 800 cells/well (180 µL/well). The plates were cultured overnight in an incubator with 5% CO2 at 37°C. T0 wells were plated simultaneously during the plating process. The next day, 20 µL of compounds at different concentrations were added to each well (nine compound concentration gradients, one DMSO well, and one blank well; each compound concentration was plated in triplicate), and the final concentration of DMSO in each well was 0.1%. The plates were cultured in an incubator with 5% CO2 at 37°C for 4 days. On the same day of compound addition, the T0 plate was detected using the CellTiter-Glo Kit, and the detected value was recorded as RLU0. After the culture was completed, 100 µL of detection solution (Cell Viability Assay, Promega) was added to each well. […] The chemiluminescence reading was read using a BMG microplate reader (PHERAstar FSX). […] In the formula, RLUcompound is the readout of the drug-treated group, RLUcontrol is the average value of the compound vehicle control group, and RLUBlank is the average value of the blank control group. […]

SW48 Xenograft Tumor = assay: In vivo efficacy assay of SW48 xenograft tumor; set-up: species or system BALB/c nude mice; conditions: after 14 days of administration
Method: The culture conditions for SW48 cells were as follows: Leibovitz L15 + 10% FBS + 1% penicillin-streptomycin, and the cells were cultured in an incubator without CO2 at 37°C. When the cell confluency reached 80%-90% and the cell number met the requirement, the cells were harvested and counted. 0.1 mL of SW48 cell suspension (5 × 10^6 cells) was subcutaneously inoculated into the right posterior back of female BALB/c nude mice. When the average tumor volume reached 100-150 mm^3, the mice were grouped according to their tumor volumes, with 10 animals per group. The test compounds at different dosages were administered to the animals in each group via intragastric administration once daily. The day of grouping was recorded as D0. During the experiment, the body weights and tumor diameters of the animals were measured three times a week. The tumor volume was calculated according to the formula V = 0.5 × a × b^2, where a and b represent the long diameter and short diameter of the tumor, respectively. The tumor inhibitory efficacy of the test compounds was evaluated by tumor growth inhibition rate (TGI%). [formula]

In the case of `Cc1ncnc(C(=O)N2CCN(c3c4n(c5nc(C6=CCOCC6)nn5c3=O)[C@@H](C(=O)Nc3ccc(C(F)(F)F)cc3Cl)CCC4)CC2)c1O` [Compound 1-B], the IC50 [1] is reported as < 0.02 µM, the IC50 (HCT-116 cells) is reported as < 0.1 µM and the “growth of SW48 tumors” value (SW48 Xenograft Tumor; intragastric once daily) is reported as “significantly inhibit”. The tumor shrinkage (SW48 Xenograft Tumor; dosage group of 15 mg/kg) was “tumor shrinkage can be observed” and the tumor shrinkage (SW48 Xenograft Tumor; dosage group of 50 mg/kg) was “tumor shrinkage can be observed”.
